Test results as given in patent publication US11077120B2, “Prostaglandin receptor EP2 antagonists, derivatives, compositions, and uses related thereto” (Emory University, priority 2014, dated 2021).

Target: T1, human EP2 receptors (Homo sapiens, UniProt P43116)
T1 construct: expressed in transfected cells
Assay: cell-based cAMP TR-FRET assay, rightward shift of PGE2 concentration response curve (Schild KB), EP2
Details: Table 1; Schild KB from single antagonist concentration 1 μM; average of 2-3 measurements in duplicate; read-out: EP2 KB
Procedure: KB value indicates the antagonist concentration required for a twofold rightward shift in the PGE2 dose-response curve. Thus, a lower KB value indicates a higher inhibitory potency.
The synthesis was carried out starting from commercially available 2-methyl indole or 2-trifluoromethyl indoles (11a-c), which on treatment with bromoacetonitrile provided intermediates (12a-c), which then were subjected to lithium aluminum hydride to reduce cyanide to amines. […] Synthesized derivatives were tested by using a cAMP-derived TR-FRET assay, at single concentration (1 μM) to observe a rightward shift of PGE2 (an EP2 agonist) concentration response curve in a C6G cell line that overexpresses human EP2 receptors.
A lower KB value indicates a higher inhibitory potency.
Intracellular cAMP was measured with a cell-based homogeneous time-resolved fluorescence resonance energy transfer (TR-FRET) method (Cisbio Bioassays). […] Endogenous cAMP produced by cells competes with labeled cAMP for binding to the cAMP antibody and thus reduces the FRET signal. Cells stably expressing human DP1, EP2, EP4, or IP receptors were seeded into 384-well plates in 30 μl complete medium (4,000 cells/well) and grown overnight. The medium was carefully withdrawn and 10 μl Hanks' Buffered Salt Solution (HBSS) (Hyclone) containing 20 μM rolipram was added into the wells to block phosphodiesterases. The cells were incubated at room temperature for 0.5-1 h and then treated with vehicle or test compound for 10 min before addition of increasing concentrations of appropriate agonist: BW245C for DP1, PGE2 for EP2 and EP4, or iloprost for IP. The cells were incubated at room temperature for 40 min, then lysed in 10 μl lysis buffer containing the FRET acceptor cAMP-d2 and 1 min later another 10 μl lysis buffer with anti-cAMP-Cryptate was added. After 60-90 min incubation at room temperature, the FRET signal was measured by an Envision 2103 Multilabel Plate Reader (PerkinElmer Life Sciences) with a laser excitation at 337 nm and dual emissions at 665 nm and 590 nm for d2 and Cryptate (50 s delay), respectively. The FRET signal was expressed as: F665/F590×10^4.

T1 sequence (P43116 whole entry): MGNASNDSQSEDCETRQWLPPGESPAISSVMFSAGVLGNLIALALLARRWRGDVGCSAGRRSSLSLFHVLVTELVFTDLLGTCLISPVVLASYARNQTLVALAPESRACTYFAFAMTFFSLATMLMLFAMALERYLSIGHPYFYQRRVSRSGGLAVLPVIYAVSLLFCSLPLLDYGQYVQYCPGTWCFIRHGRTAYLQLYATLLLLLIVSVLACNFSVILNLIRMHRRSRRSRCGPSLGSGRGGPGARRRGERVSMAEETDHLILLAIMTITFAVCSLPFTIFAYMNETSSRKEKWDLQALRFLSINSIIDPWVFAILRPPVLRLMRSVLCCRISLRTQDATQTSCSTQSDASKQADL

With `COc1ccc(C(=O)NCCn2c(C)cc3ccccc32)cc1` [Compound 6c] as the compound, how does the Kb read?
Its Kb is 75.6 nM.

For `CCNc1ccc(C(=O)NCCn2c(C)cc3ccccc32)cc1` [Compound 6d], which Kb is on record?
Its Kb is 15.5 nM.

With `CCCCN(CCCC)c1ccc(C(=O)NCCn2c(C)cc3ccccc32)cc1` [Compound 6h] as the compound, how does the Kb read?
Its Kb is 68.8 nM.

Which Kb does the source give for `Cc1cc2ccccc2n1CCNC(=O)c1ccc(O)cc1` [Compound 6j] here?
The Kb was over 1000 nM.

How did the Kb turn out when `Cc1cc2ccccc2n1CCNC(=O)c1ccc(NC(=N)N)cc1` [Compound 6k] was run?
Its Kb is over 1000 nM.

How did the Kb turn out when `CC(=O)Oc1ccc(C(=O)NCCn2c(C)cc3ccccc32)cc1` [Compound 6m] was run?
The Kb was 150 nM.

With `CC(=O)Nc1ccc(C(=O)NCCn2c(C)cc3ccccc32)cc1` [Compound 6n] as the compound, how does the Kb read?
Its Kb is 97 nM.

How did the Kb turn out when `Cc1cc2ccccc2n1CCNC(=O)c1ccc(NC(=O)c2ccccc2F)cc1` [Compound 6o] was run?
The Kb was 51 nM.

With `Cc1cc2ccccc2n1CCNC(=O)c1ccc(C(=O)N(C)C)cc1` [Compound 6q] as the compound, how does the Kb read?
Its Kb is over 1000 nM.

With `CCN(CC)C(=O)c1ccc(C(=O)NCCn2c(C)cc3ccccc32)cc1` [Compound 6r] as the compound, how does the Kb read?
Its Kb is 800 nM.

`Cc1cc2ccccc2n1CCNC(=O)c1ccc(C(=O)OC(C)(C)C)cc1` [Compound 6t] was tested. Which Kb did it give?
Its Kb is 100 nM.

`Cc1cc2ccccc2n1CCNC(=O)c1ccc(S(N)(=O)=O)cc1` [Compound 6v] was tested. Which Kb did it give?
Its Kb is 486 nM.

Which Kb does the source give for `Cc1cc2ccccc2n1CCNC(=O)c1ccc(CNC(=O)OC(C)(C)C)cc1` [Compound 6x] here?
The Kb was 84 nM.

Which Kb does the source give for `Cc1cc2ccccc2n1CCNC(=O)c1ccc(CN)cc1` [Compound 6y] here?
The Kb was 690 nM.

With `Cc1cc2ccccc2n1CCNC(=O)c1ccc(CCN)cc1` [Compound 6z] as the compound, how does the Kb read?
The Kb was 1220 nM.

With `Cc1cc2ccccc2n1CCNC(=O)c1ccc(N(C)C)c(F)c1` [Compound 7a] as the compound, how does the Kb read?
Its Kb is 18.1 nM.

With `CC(=O)Nc1ccc(C(=O)NCCn2c(C)cc3ccccc32)cc1F` [Compound 7b] as the compound, how does the Kb read?
Its Kb is 530 nM.

`COc1ccc(C(=O)NCCn2c(C)cc3ccccc32)cc1F` [Compound 7c] was tested. Which Kb did it give?
The Kb was 86.8 nM.

With `CCN(CC)c1ccc(C(=O)NCCn2c(C)cc3ccccc32)cc1F` [Compound 7d] as the compound, how does the Kb read?
The Kb was 4.6 nM.

`CCN(CC)c1ccc(C(=O)NCCn2c(C)cc3ccccc32)cc1C(F)(F)F` [Compound 7e] was tested. Which Kb did it give?
Its Kb is 310 nM.

Which Kb does the source give for `CCNc1ccc(C(=O)NCCn2c(C)cc3ccccc32)cc1C(F)(F)F` [Compound 7f] here?
Its Kb is 20.2 nM.

Which Kb does the source give for `CCN(CC)c1ccc(C(=O)NCCn2c(C)cc3ccccc32)cc1OC` [Compound 7g] here?
Its Kb is 61.2 nM.

How did the Kb turn out when `Cc1cc2ccccc2n1CCNC(=O)c1ccc(C#N)c(F)c1` [Compound 7h] was run?
Its Kb is 140 nM.

For `Cc1cc2ccccc2n1CCNC(=O)c1ccc(C#N)cc1F` [Compound 7i], which Kb is on record?
The Kb was 280 nM.

`Cc1cc2ccccc2n1CCNC(=O)c1ccc(N2CCC(C)CC2)cc1` [Compound 7l] was tested. Which Kb did it give?
Its Kb is 30.3 nM.

How did the Kb turn out when `CCOC(=O)C1CCN(c2ccc(C(=O)NCCn3c(C)cc4ccccc43)cc2)CC1` [Compound 7m] was run?
The Kb was 500 nM.

With `Cc1cc2ccccc2n1CCNC(=O)c1ccc(N2CCN(C)CC2)cc1` [Compound 7q] as the compound, how does the Kb read?
Its Kb is 64 nM.

Which Kb does the source give for `Cc1cc2ccccc2n1CCNC(=O)c1cccc(N2CCN(C)CC2)c1` [Compound 7r] here?
The Kb was 770 nM.

How did the Kb turn out when `Cc1cc2ccccc2n1CCNC(=O)c1cccc(N2CCOCC2)c1` [Compound 7s] was run?
The Kb was over 1000 nM.

How did the Kb turn out when `Cc1cc2ccccc2n1CCNC(=O)c1ccc(N2CCCN(C)CC2)cc1` [Compound 7v] was run?
Its Kb is 148 nM.

`Cc1cc2ccccc2n1CCNC(=O)c1ccc(-n2cnnn2)cc1` [Compound 7x] was tested. Which Kb did it give?
Its Kb is 42.2 nM.

For `Cc1cc2ccccc2n1CCNC(=O)c1ccc(-n2nn[nH]c2=S)cc1` [Compound 7y], which Kb is on record?
Its Kb is 32.2 nM.

For `Cc1cc2ccccc2n1CCNC(=O)c1ccc(C2CCCCC2)cc1` [Compound 8b], which Kb is on record?
Its Kb is 120 nM.

For `Cc1cc2ccccc2n1CCNC(=O)c1ccc(N2CCNCC2)cc1` [Compound 8c], which Kb is on record?
Its Kb is 410 nM.

With `CC(=O)N1CCN(c2ccc(C(=O)NCCn3c(C)cc4ccccc43)cc2)CC1` [Compound 8d] as the compound, how does the Kb read?
Its Kb is 50.2 nM.

Which Kb does the source give for `Cc1cc2ccccc2n1CCNC(=O)c1ccc2[nH]nnc2c1` [Compound 8e] here?
The Kb was 87.5 nM.

Which Kb does the source give for `Cc1cc2ccccc2n1CCNC(=O)c1ccc2[nH]c(=S)[nH]c(=O)c2c1` [Compound 8f] here?
Its Kb is 84.1 nM.

`Cc1cc2ccccc2n1CCNC(=O)c1ccc(C2CCCN(C(=O)OC(C)(C)C)C2)cc1` (stereo not drawn) [Compound 8g] was tested. Which Kb did it give?
The Kb was 95 nM.

Which Kb does the source give for `Cc1cc2ccccc2n1CCNC(=O)c1ccc(C2CCCNC2)cc1` (stereo not drawn) [Compound 8h] here?
Its Kb is over 1000 nM.

With `Cc1cc2ccccc2n1CCNC(=O)c1ccc(OC2CCNCC2)cc1` [Compound 8i] as the compound, how does the Kb read?
The Kb was over 1000 nM.

How did the Kb turn out when `Cc1cc2ccccc2n1CCNC(=O)c1ccc(CN2CCOCC2)cc1` [Compound 8j] was run?
The Kb was 970 nM.

Which Kb does the source give for `Cc1cc2ccccc2n1CCNC(=O)c1ccc(CN2CCN(C)CC2)cc1` [Compound 8k] here?
Its Kb is over 1000 nM.

`Cc1cc2ccccc2n1CCNC(=O)c1cnc(N)nc1` [Compound 8l] was tested. Which Kb did it give?
Its Kb is over 1000 nM.

With `Cc1cc2ccccc2n1CCNC(=O)c1cccnc1N` [Compound 8p] as the compound, how does the Kb read?
Its Kb is 520 nM.

`Cc1cc2ccccc2n1CCNC(=O)C1CCC(c2ncccn2)CC1` (stereo not drawn) [Compound 8q] was tested. Which Kb did it give?
The Kb was 380 nM.

How did the Kb turn out when `Cc1cc2cc(F)ccc2n1CCNC(=O)c1ccc(N2CCOCC2)cc1` [Compound 8r] was run?
The Kb was 14.9 nM.

How did the Kb turn out when `Cc1cc2cc(F)ccc2n1CCNC(=O)c1ccc(N2CCN(C)CC2)c(F)c1` [Compound 8s] was run?
The Kb was 62.2 nM.

Which Kb does the source give for `CCN(CC)c1ccc(C(=O)NCCn2c(C(F)(F)F)cc3ccccc32)cc1` [Compound 8t] here?
The Kb was 150 nM.

Which Kb does the source give for `O=C(NCCn1c(C(F)(F)F)cc2ccccc21)c1ccc(N2CCOCC2)cc1` [Compound 8u] here?
The Kb was 120 nM.

Which Kb does the source give for `CCN(CC)c1ccc(C(=O)NCCn2c(C)nc3ccccc32)cc1` [Compound 8v] here?
Its Kb is 190 nM.

`CCN(CC)c1ccc(C(=O)NCCn2cnc3ccccc32)cc1` [Compound 8w] was tested. Which Kb did it give?
The Kb was over 1000 nM.

Which Kb does the source give for `CCN(CC)C(=O)c1ccc(C(=O)NCCc2c(C)[nH]c3ccccc23)cc1` [Compound 8y] here?
The Kb was over 1000 nM.

With `Cc1[nH]c2ccccc2c1CCNC(=O)c1ccc(N2CCCCC2)cc1` [Compound 9b] as the compound, how does the Kb read?
The Kb was 19.8 nM.

With `Cc1[nH]c2ccccc2c1CCNC(=O)c1ccc(N2CCOCC2)c(F)c1` [Compound 9d] as the compound, how does the Kb read?
Its Kb is 66 nM.

How did the Kb turn out when `Cc1[nH]c2ccccc2c1CCNC(=O)c1ccc(N2CCN(C)CC2)cc1` [Compound 9e] was run?
Its Kb is 135 nM.

With `CCNc1ncc(C(=O)NCCc2c(C)[nH]c3ccccc23)cn1` [Compound 9f] as the compound, how does the Kb read?
The Kb was 155 nM.

How did the Kb turn out when `Cc1[nH]c2ccccc2c1CCNC(=O)c1cnc(N2CCOCC2)nc1` [Compound 9g] was run?
The Kb was 280 nM.

`Cc1cc2ccccc2n1CCNC(=O)c1nc2cc(F)ccc2[nH]1` [Compound 9h] was tested. Which Kb did it give?
The Kb was 130 nM.

Same assay, conditions: Table 3; Schild KB from single concentration 1 μM; read-out: EP2 KB

With `COc1cc(/C=C/C(=O)N2CCCC(c3c(C)[nH]c4ccccc34)C2)cc(OC)c1OC` (stereo not drawn) [Compound 16n] as the compound, how does the Kb read?
The Kb was over 1000 nM.

Which Kb does the source give for `COc1cc(/C=C/C(=O)N2CCC(c3c(C)[nH]c4ccccc34)C2)cc(OC)c1OC` (stereo not drawn) [Compound 16o] here?
The Kb was over 1000 nM.

Same assay, conditions: Table 6

For `Cc1nc2ccccc2c(C(=O)NCCn2c(C)cc3ccccc32)c1O` [TG7-276], which “EP2 KB” value is on record?
Its value is “Inactive”.

For `Cc1cc2ccccc2n1CCNC(=O)c1ccc(OCCN(C)C)c(OCCN(C)C)c1` [TG8-76-2], which “EP2 KB” value is on record?
The value was “Inactive”.

Same assay, conditions: Table 6; read-out: EP2 KB

`O=C(NCCn1c(C(F)(F)F)cc2ccccc21)c1cc(-c2ccc(F)cc2)n[nH]1` [TG7-266] was tested. Which Kb did it give?
The Kb was 8800 nM.

For `Cc1cc(C(=O)NCCn2c(C)cc3ccccc32)n(Cc2ccccc2)n1` [TG7-274], which Kb is on record?
Its Kb is 1330 nM.

`Cc1ccc2c(O)c(C(=O)NCCn3c(C)cc4ccccc43)cnc2n1` [TG7-275] was tested. Which Kb did it give?
Its Kb is 1810 nM.

`Cc1cc2ccccc2n1CCNC(=O)c1cc(CC(C)C)no1` [TG7-277] was tested. Which Kb did it give?
The Kb was 172 nM.

For `Cc1cc2ccccc2n1CCNC(=O)c1ccc(N2CCC(C(=O)N(C)C)CC2)cc1` [TG8-64], which Kb is on record?
Its Kb is 190 nM.

`COc1cc(C(=O)NCCn2c(C)cc3ccccc32)ccc1OCCN(C)C` [TG8-75] was tested. Which Kb did it give?
Its Kb is 1000 nM.

Same assay, conditions: read-out: EP2 KB

For `Cc1cc2ccccc2n1CCNC(=O)c1cccc(S(N)(=O)=O)c1` [Compound 6w], which Kb is on record?
The Kb was over 1000 nM.
